Experimental data from patent publication US20230114123A1, “METHOD OF STIMULATING ASYMMETRIC DIVISION OF SATELLITE STEM CELLS” (Ottawa Hospital Research Institute, priority 2017, published 2023).

B1: Wnt7a ligand: known activator of symmetric satellite cell divisions (protein, UniProt O00755 32-349, looked up)
Protein Wnt-7a: LGASIICNKIPGLAPRQRAICQSRPDAIIVIGEGSQMGLDECQFQFRNGRWNCSALGERTVFGKELKVGSREAAFTYAIIAAGVAHAITAACTQGNLSDCGCDKEKQGQYHRDEGWKWGGCSADIRYGIGFAKVFVDAREIKQNARTLMNLHNNEAGRKILEENMKLECKCHGVSGSCTTKTCWTTLPQFRELGYVLKDKYNEAVHVEPVRASRNKRPTFLKIKKPLSYRKPMDTDLVYIEKSPNYCEEDPVTGSVGTQGRACNKTAPQASGCDLMCCGRGYNTHQYARVWQCNCKFHWCCYVKCNTCSERTEMYTCK

Key:
satellite stem cells = assay: EDL myofiber culture, satellite stem cell divisions (Myf5-Cre/R26R-eYFP, wild type); assay type: cell-based, mouse; conditions: 42 h culture, Lapatinib 1 μM vs DMSO vehicle
Description: EGFR Signaling Regulates Asymmetric Satellite Stem Cell Divisions. To assess the role of EGFR in asymmetric division, the inventors cultured satellite cells in myofibers isolated from Extensor digitorum longus (EDL) muscles from Myf5-Cre/R26R-eYFP mice and performed both loss-of-function and gain-of-function experiments. Isolated myofibers were first cultured for 42 h with and without treatment with the Lapatinib, a specific inhibitor of EGFR signaling.
EDL fiber Culture and siRNA Transfection. Myofiber culture was performed as described in Dumont, N. A., et al. “Dystrophin expression in muscle stem cells regulates their polarity and asymmetric division.” Nat. Med. (2015) 21:1455-63, which is incorporated herein by reference. Briefly, EDL were carefully dissected and incubated in DMEM with 2% L-glutamine, 4.5% glucose, and 110 mg/mL sodium pyruvate (Gibco) containing 0.2% collagenase I (Sigma) for 45 min. Myofibers were isolated using gentle trituration with a glass pipet. Myofibers were cultured for 36, 42, or 72 h in DMEM containing 20% FBS (Wisent), 1% chick embryo extract (MP Biomedicals), and 2.5 ng/ml bFGF (Cedarlane). For pharmacological inhibition, Lapatinib ditosylate (1 mM in DMSO; Santa
Cruz Biotechnology), PTP1b inhibitor CAS 765317-72-4 (10 mM in DMSO; Santa Cruz Biotechnologies) was added to the culture medium for a final concentration of 1 μM or 10 μM, respectively; equal dilution of DMSO was used as vehicle control.
Transfection of satellite cells on myofibers was performed using lipofectamine RNAimax (Life Technologies) and validated Smartpool siRNAs for EGFR, Aurka, or scramble (SCR) (Dharmacon). Two transfections were performed at 4 h and 16 h after isolation of the myofibers as described in Le Grand, et al. (2009) Wnt7a activates the planar cell polarity pathway to drive the symmetric expansion of satellite stem cells. Cell Stem Cell 4, pp 535-547, which is incorporated herein by reference. Knockdown efficiencies of the siRNA were validated in myoblasts by western blot and qRT-PCR.

EGFR signaling = assay type: cell-based
satellite cell divisions = assay: FDB myofiber screening method validation (YFP(-) divisions); assay type: cell-based, mouse; conditions: control 62% (Wnt7a experiment), control 45% (EGF / PTP1b experiment)
Excerpt: EGFR pathway activators may be identified in a method of screening potential activators. The method includes visualizing isolated, cultured, and stained Flexor Digitorum Brevis (FDB) myofibers from Myf5-Cre/ROSA26-YFP mice in a plurality of Z-stack planes to create a projection image. Muscle satellite cells are identified in the projection image based on Pax7 expression. Of the identified muscle satellite cells: (i) satellite stem cells are identified based on the absence of YFP expression, and (ii) committed satellite progenitor cells are identified based on yellow fluorescence protein (YFP) expression. A potential EGFR pathway activator is administered to the FDB myofibers. The number of symmetric divisions of satellite myogenic cells, identified by the production of two YFP(+) satellite cells, are counted; the number of symmetric satellite stem cell divisions, identified by the production of two YFP(−) satellite cells, are counted; and the number of asymmetric satellite cell divisions, identified by the production of one YFP(+) and one YFP(−) satellite cell, are counted. The potential EGFR pathway activator is identified as an EGFR pathway activator when the percent of YFP(−) divisions that are asymmetric divisions is greater than the corresponding percent in a control sample. The expression “YFP(−) divisions” refers to all cell divisions where one of the daughter cells is YFP(−).
Identification of EGFR pathway activators. Flexor Digitorum brevis (FDB) fibers were isolated from Myf5-Cre/Rosa-YFP mice and digested in 0.25% Collagenase Type I (Sigma) in DMEM (Dulbecco's modified Eagle's medium; high glucose, L-glutamine with 110 mg/ml sodium pyruvate) for 2.5-3 h. Myofibers were dissociated using gentle trituration with a glass pipette.
Myofibers are cultured at 37° C., 5% CO2 for 42 h in myofiber culture media (DMEM supplemented with 20% FBS(Wisent), 1% Chicken Embryo extract (MP Biomediacals), 1% Penicillin/Streptomycin (Cederlane) and 2.5 ng/ml basic Fibroblast Growth Factor (Cedarlane).
Myofibers are first fixed in 2% Paraformaldehyde (PFA) for 5 mins. Myofibers are blocked for 1-2 h in 1% Bovine Serum Albumin, 0.5% TritonX-100, 5% HS and 0.01% Sodium Azide. Primary antibodies are applied in blocking solution for 2 h at room temperature or at 4° C. overnight. Myofibers are washed with PBS and stained with appropriate fluorescently labeled secondary antibodies (Alexa Fluor 488, 546) for 1 hat room temperature. Following washing with PBS, fiber nuclei are stained with DAPI for 5 min. The following antibodies are used: mouse anti-Pax7 (Developmental Studies Hybridoma Bank (DSHB)), chicken anti-GFP (cat. no. ab13970, Abcam).
Satellite cells are focused based on Channel 3 (DAPI) staining. Autofocus is performed by sampling seven (7) z-stacks taken at […] intervals for an extended depth of field of 85.3 μm.
Z-stack images were consolidated to create a projection image with all satellite cells in focus. Image acquisition of a projection image for analysis was created from seven (7) Z-stack images taken at 6.5 μm intervals, for an extended depth of field of 45.5 μm at 200 (Objective 20×) magnification. The projection direction was centered, where the median stacks fall within the center of each myofiber. […]
Potential satellite cells were first identified based on Channel 1 (Pax7) signal, and separated from other satellite cells based on intensity of fluorescence between cells. […]

| Molecule | decrease in the rate of asymmetric divisions (satellite stem cells; FIG. 1A) | increase in the number of satellite stem cells (satellite stem cells; FIG. 1B) | EGFR signaling at the concentration used in the screen (EGFR signaling) | percentage of YFP(-) divisions that were symmetric divisions (satellite cell divisions) |
| --- | --- | --- | --- | --- |
| CS(=O)(=O)CCNCc1ccc(-c2ccc3ncnc(Nc4ccc(OCc5cccc(F)c5)c(Cl)c4)c3c2)o1 [Lapatinib, reference compound] | 83% | 71% | completely abolishes EGFR signaling |  |
| B1 |  |  |  | 78% |
